In patent US11279687B2, “Compounds and compositions for the inhibition of NAMPT” (Valo Health, Inc., priority 2010, dated 2022):
pIC50: −log10 of the molar value.

Columns and labels:
NAMPT = NAMPT (Homo sapiens (Human), UniProt P43490); experiment: NAMPT biochemical inhibition assay (NMN quantified by mass spectrometry); conditions: NAMPT biochemical inhibition; read-out: Biochem IC50
A2780 cells = experiment: In-vitro cell proliferation assay (SRB), A2780 cells; format: cell-based; conditions: Homo sapiens, A2780, 72 h, A2780 cells, 72 hours, SRB; read-out: A2780 IC50;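 note: viable cell number read as SRB absorbance, background from media-only wells subtracted, IC50 interpolated from percent inhibition at two bracketing compound concentrations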

Sequence of NAMPT (P43490 whole entry): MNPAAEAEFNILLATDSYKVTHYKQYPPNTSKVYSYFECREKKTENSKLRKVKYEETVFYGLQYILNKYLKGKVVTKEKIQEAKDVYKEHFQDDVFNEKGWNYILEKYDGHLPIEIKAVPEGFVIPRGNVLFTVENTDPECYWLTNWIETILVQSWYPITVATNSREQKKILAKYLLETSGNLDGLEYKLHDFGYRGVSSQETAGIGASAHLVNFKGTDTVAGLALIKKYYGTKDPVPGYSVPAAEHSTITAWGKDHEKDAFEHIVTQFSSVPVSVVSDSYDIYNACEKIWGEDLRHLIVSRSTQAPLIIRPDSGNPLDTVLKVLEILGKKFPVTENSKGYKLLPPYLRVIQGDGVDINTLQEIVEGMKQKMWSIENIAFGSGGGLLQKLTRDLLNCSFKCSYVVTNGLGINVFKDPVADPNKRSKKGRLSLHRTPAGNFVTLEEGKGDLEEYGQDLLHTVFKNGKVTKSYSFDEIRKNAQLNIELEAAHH

SMILES	pIC50 (NAMPT)	pIC50 (A2780 cells)
O=C(NCc1ccc(C(F)(F)F)nc1)Nc1ccc(S(=O)(=O)N2CCCCC2)cc1 [3-[4-(piperidine-1-sulfonyl)phenyl]-1-{[6-(trifluoromethyl)pyridin-3-yl]methyl]urea]	6.72	< 4.52
C[C@H](O)COc1ccccc1NS(=O)(=O)c1ccc(NC(=O)NCc2cccnc2)cc1 [3-[4-({2-[(2S)-2-hydroxypropoxy]phenyl}sulfamoyl)phenyl]-1-(pyridin-3-ylmethyl)urea]	7.92	7.06
C[C@H](O)c1cccc(NS(=O)(=O)c2ccc(NC(=O)NCc3cccnc3)cc2)c1 [3-[4-({3-[(1S)-1-hydroxyethyl]phenyl}sulfamoyl)phenyl]-1-(pyridin-3-ylmethyl)urea]	8.15	6.79
NC(=O)c1cccc(S(=O)(=O)c2ccc(NC(=O)NCc3cccnc3)cc2)c1 [3-[(4-{[(pyridin-3-ylmethyl)carbamoyl]amino[benzene)sulfonyl]benzamide]	8.10	5.00 to 6.00
O=C(NCc1cncc(Cl)c1)Nc1ccc(S(=O)(=O)N2CCCCC2)cc1 [3-[(5-chloropyridin-3-yl)methyl]-1-[4-(piperidine-1-sulfonyl)phenyl]urea]	7.32	4.74
Nc1ccc(CNC(=O)Nc2ccc(S(=O)(=O)N3CCCCC3)cc2)cn1 [3-[(6-aminopyridin-3-yl)methyl]-1-[4-(piperidine-1-sulfonyl)phenyl]urea]	8.07	7.15
O=C(NCc1ccc(Cl)nc1)Nc1ccc(S(=O)(=O)N2CCCCC2)cc1 [3-[(6-chloropyridin-3-yl)methyl]-1-[4-(piperidine-1-sulfonyl)phenyl]urea]	8.10	< 4.52
CN(C)c1ncc(S(=O)(=O)c2ccc(NC(=O)NCc3cccnc3)cc2)cn1 [3-{4-[2-(dimethylamino)pyrimidine-5-sulfonyl]phenyl}-1-(pyridin-3-ylmethyl)urea]	8.23	6.00 to 7.00
COc1ccccc1N1CCN(S(=O)(=O)c2ccc(NC(=O)NCc3cccnc3)cc2)CC1 [3-{4-[4-(2-methoxyphenyl)piperazine-1-sulfonyl]phenyl}-1-(pyridin-3-ylmethyl)urea]	8.15	7.46
Cc1ccccc1N1CCN(S(=O)(=O)c2ccc(NC(=O)NCc3cccnc3)cc2)CC1 [3-{4-[4-(2-methylphenyl)piperazine-1-sulfonyl]phenyl}-1-(pyridin-3-ylmethyl)urea]	8.22	6.97
O=C(NCc1cccnc1)Nc1ccc(S(=O)(=O)N2CCC(O)(c3cccc(Cl)c3)CC2)cc1 [3-{4-[4-(3-chlorophenyl)-4-hydroxypiperidine-1-sulfonyl]phenyl}-1-(pyridin-3-ylmethyl)urea]	8.28	6.02
COCC1CCN(S(=O)(=O)c2ccc(NC(=O)NCc3cccnc3)cc2)CC1 [3-{4-[4-(methoxymethyl)piperidine-1-sulfonyl]phenyl}-1-(pyridin-3-ylmethyl)urea]	7.66	6.89
CC(C)(C)CNS(=O)(=O)c1ccc(NC(=O)NCc2cccnc2)cc1 [3-{4-[(2,2-dimethylpropyl)sulfamoyl]phenyl}-1-(pyridin-3-ylmethyl)urea]	7.77	6.80
Cc1cccc(S(=O)(=O)c2ccc(NC(=O)NCc3cccnc3)cc2)c1C [3-{4-[(2,3-dimethylbenzene)sulfonyl]phenyl}-1-(pyridin-3-ylmethyl)urea]	8.30	6.53
COc1ccc(S(=O)(=O)c2ccc(NC(=O)NCc3cccnc3)cc2)c(OC)c1 [3-{4-[(2,4-dimethoxybenzene)sulfonyl]phenyl}-1-(pyridin-3-ylmethyl)urea]	8.30	7.33
Cc1ccc(S(=O)(=O)c2ccc(NC(=O)NCc3cccnc3)cc2)c(C)c1 [3-{4-[(2,4-dimethylbenzene)sulfonyl]phenyl}-1-(pyridin-3-ylmethyl)urea]	7.74	6.01
O=C(NCc1cccnc1)Nc1ccc(S(=O)(=O)c2cc(Cl)ccc2Cl)cc1 [3-{4-[(2,5-dichlorobenzene)sulfonyl]phenyl}-1-(pyridin-3-ylmethyl)urea]	8.22	6.19

Second part, the compound after the results:

pIC50 (NAMPT)	pIC50 (A2780 cells)	SMILES
8.52	6.83	CN(C)c1ccc(CNS(=O)(=O)c2ccc(NC(=O)NCc3cccnc3)cc2)cc1 [3-[4-({[4-(dimethylamino)phenyl]methyl}sulfamoyl)phenyl]-1-(pyridin-3-ylmethyl)urea]
8.46	8.77	CCN(CC)C(=O)c1cc(Cl)cc(S(=O)(=O)c2ccc(NC(=O)NCc3cccnc3)cc2)c1 [3-chloro-N,N-diethyl-5-[(4-{[(pyridin-3-ylmethyl)carbamoyl]amino}benzene)sulfonyl]benzamide]
8.82	7.88	CN(C)C(=O)c1cc(F)cc(S(=O)(=O)c2ccc(NC(=O)NCc3cccnc3)cc2)c1 [3-fluoro-N,N-dimethyl-5-[(4-{[(pyridin-3-ylmethyl)carbamoyl]amino}benzene)sulfonyl]benzamide]
8.52	8.22	CC(C)c1ccc(S(=O)(=O)c2ccc(NC(=O)NCc3cccnc3)cc2)c(Cl)n1 [3-{4-[2-chloro-6-(propan-2-yl)pyridine-3-sulfonyl]phenyl}-1-(pyridin-3-ylmethyl)urea]
8.40	7.05	COCCC1CCCN(S(=O)(=O)c2ccc(NC(=O)NCc3cccnc3)cc2)C1 (centres unmarked) [3-{4-[3-(2-methoxyethyl)piperidine-1-sulfonyl]phenyl}-1-(pyridin-3-ylmethyl)urea]
8.40	7.85	O=C(NCc1cccnc1)Nc1ccc(S(=O)(=O)c2ccnc(N3CCOCC3)c2Cl)cc1 [3-{4-[3-chloro-2-(morpholin-4-yl)pyridine-4-sulfonyl]phenyl}-1-(pyridin-3-ylmethyl)urea]
8.30	7.00	Cc1ccc(C)c(N2CCN(S(=O)(=O)c3ccc(NC(=O)NCc4cccnc4)cc3)CC2)c1 [3-{4-[4-(2,5-dimethylphenyl)piperazine-1-sulfonyl]phenyl}-1-(pyridin-3-ylmethyl)urea]
8.70	8.22	CCOc1ccccc1N1CCN(S(=O)(=O)c2ccc(NC(=O)NCc3cccnc3)cc2)CC1 [3-{4-[4-(2-ethoxyphenyl)piperazine-1-sulfonyl]phenyl]-1-(pyridin-3-ylmethyl)urea]
8.52	7.54	O=C(NCc1cccnc1)Nc1ccc(S(=O)(=O)N2CCN(c3c(Cl)cncc3Cl)CC2)cc1 [3-{4-[4-(3,5-dichloropyridin-4-yl)piperazine-1-sulfonyl]phenyl}-1-(pyridin-3-ylmethyl)urea]
9.00	7.74	O=C(NCc1cccnc1)Nc1ccc(S(=O)(=O)N2CCN(c3ncccc3Cl)CC2)cc1 [3-{4-[4-(3-chloropyridin-2-yl)piperazine-1-sulfonyl]phenyl}-1-(pyridin-3-ylmethyl)urea]
8.70	7.30	COc1ccc(Cl)cc1N1CCN(S(=O)(=O)c2ccc(NC(=O)NCc3cccnc3)cc2)CC1 [3-{4-[4-(5-chloro-2-methoxyphenyl)piperazine-1-sulfonyl]phenyl}-1-(pyridin-3-ylmethyl)urea]
8.70	6.79	Cc1ccc(Cl)cc1N1CCN(S(=O)(=O)c2ccc(NC(=O)NCc3cccnc3)cc2)CC1 [3-{4-[4-(5-chloro-2-methylphenyl)piperazine-1-sulfonyl]phenyl}-1-(pyridin-3-ylmethyl)urea]
8.30	7.85	CCN(CC)C1CCN(S(=O)(=O)c2ccc(NC(=O)NCc3cccnc3)cc2)CC1 [3-{4-[4-(diethylamino)piperidine-1-sulfonyl]phenyl}-1-(pyridin-3-ylmethyl)urea]
8.40	8.52	CCCN(CCC)C1CCN(S(=O)(=O)c2ccc(NC(=O)NCc3cccnc3)cc2)CC1 [3-{4-[4-(dipropylamino)piperidine-1-sulfonyl]phenyl}-1-(pyridin-3-ylmethyl)urea]
8.52	7.13	CN(C)c1ccc(S(=O)(=O)c2ccc(NC(=O)NCc3cccnc3)cc2)cn1 [3-{4-[6-(dimethylamino)pyridine-3-sulfonyl]phenyl}-1-(pyridin-3-ylmethyl)urea]
9.00	6.35	O=C(NCc1cccnc1)Nc1ccc(S(=O)(=O)c2cccc(Cl)c2Cl)cc1 [3-{4-[(2,3-dichlorobenzene)sulfonyl]phenyl}-1-(pyridin-3-ylmethyl)urea]
8.70	7.52	O=C(NCc1cccnc1)Nc1ccc(S(=O)(=O)Nc2cccc(Cl)c2Cl)cc1 [3-{4-[(2,3-dichlorophenyl)sulfamoyl]phenyl}-1-(pyridin-3-ylmethyl)urea]
8.40	6.26	O=C(NCc1cccnc1)Nc1ccc(S(=O)(=O)c2cccc(F)c2F)cc1 [3-{4-[(2,3-difluorobenzene)sulfonyl]phenyl}-1-(pyridin-3-ylmethyl)urea]
9.05	7.13	Cc1cccc(NS(=O)(=O)c2ccc(NC(=O)NCc3cccnc3)cc2)c1C [3-{4-[(2,3-dimethylphenyl)sulfamoyl]phenyl}-1-(pyridin-3-ylmethyl)urea]
8.40	6.08	O=C(NCc1cccnc1)Nc1ccc(S(=O)(=O)c2ccc(Cl)cc2Cl)cc1 [3-{4-[(2,4-dichlorobenzene)sulfonyl]phenyl}-1-(pyridin-3-ylmethyl)urea]
8.52	6.72	O=C(NCc1cccnc1)Nc1ccc(S(=O)(=O)Nc2ccc(Cl)cc2Cl)cc1 [3-{4-[(2,4-dichlorophenyl)sulfamoyl]phenyl]-1-(pyridin-3-ylmethyl)urea]
9.00	6.46	O=C(NCc1cccnc1)Nc1ccc(S(=O)(=O)c2ccc(F)cc2F)cc1 [3-{4-[(2,4-difluorobenzene)sulfonyl]phenyl}-1-(pyridin-3-ylmethyl)urea]
8.52	6.96	COc1ccc(NS(=O)(=O)c2ccc(NC(=O)NCc3cccnc3)cc2)c(OC)c1 [3-{4-[(2,4-dimethoxyphenyl)sulfamoyl]phenyl}-1-(pyridin-3-ylmethyl)urea]
